Measured values: patent US9895367B2, “Formulation comprising phenylaminopyrimidine derivative as active agent” (NATCO PHARMA LIMITED, priority 2011, dated 2018)

What was measured:
[1] = system: PC3M (Prostate Cancer) Cell lines; assay: MTT assay on PC3M cell lines; assay type: cell-based; conditions: Homo sapiens, PC-3M, 0.312×10^5 cells/mL, 72 hours
[2] = Solubility of NRC-AN-019 drug substance; assay type: physicochemical
Text: NRC-AN-019 is a pale yellow to light brown coloured crystalline to amorphous powder. Its molecular formula is C25H17F6N5O and its relative molecular mass is 517.44. […] The drug substance is soluble in dimethyl formamide and dimethyl sulfoxide.

[3] = system: CAL-27 (Tongue squamous cell carcinoma) cell line; assay: MTT assay on CAL-27 cell line; assay type: cell-based; conditions: Homo sapiens, CAL-27, 1.75×10^4 cells/mL, 72 hours
rats = assay: Toxicological study, maximum tolerated oral dose in rats; assay type: in vivo
[4] = Bioavailability study in rats (oral, LCMS of blood); assay type: in vivo; conditions: wistar albino male rats, fasted overnight, average
Text: Four rats (wistar albino, male, weighing 120-180 grams) were divided into two sets of study (two rats in each set) and fasted overnight prior to dosing, but were permitted water ad libitum. The sample preparation and subsequent dilution was made as per protocol with a vehicle, followed by the administration of the sample through oral route. Blood samples were collected by puncturing retero-orbital sinus of the anaesthetized rats (with anesthetic ether) at definite intervals of 15, 30, 60, 120, 240, 360, 480 and 720 minutes post administration. The blood collection was done in prefilled heparin centrifugation tubes.
The blood samples collected were subjected for the subsequent centrifugation and followed by analytical procedure with the use of LCMS technique. The areas under the blood drug concentration versus time curves are calculated by the trapezoidal rule. The analysis was done with respect to AUC (area under curve), Cmax (maximum concentration) and Tmax (time of maximum concentration).

In the case of `Cc1ccc(NC(=O)c2cc(C(F)(F)F)cc(C(F)(F)F)c2)cc1Nc1nccc(-c2cccnc2)n1` [NRC-AN-019, (3,5-bis-trifluoromethyl)-N-[4-methyl-3-(4-pyridin-3-yl-pyrimidin-2-ylamino)-pheny-1]-benzamide], the IC50 [1] is reported as 4380 nM, the “solubility in aqueous buffer of pH 1.2” value ([2]; aqueous buffer pH 1.2) is reported as “very slightly soluble” and the “solubility in dimethyl formamide” value ([2]; dimethyl formamide) is reported as “soluble”. For the same compound, the “solubility in dimethyl sulfoxide” value ([2]; dimethyl sulfoxide) was “soluble”, the “solubility in neutral/alkaline aqueous buffers” value ([2]; neutral/alkaline aqueous buffers) was “insoluble” and the solubility in water ([2]; water) was “practically insoluble”. The IC50 [3] was 1440 nM, the “maximum tolerated oral dose” value (rats) was greater than 5000 mg/kg bodyweight and the Cmax ([4]; rat) was 35.2 ng/mL. For the same compound, the Tmax ([4]; rat) was 8.7 h and the AUC ([4]; trapezoidal rule) was 430.0 ng·h/mL.
